Experimental data taken from ChEMBL document CHEMBL3120096 (J Med Chem, 2014).
≈ marks a conversion by molar mass, not a printed value.

How the values were obtained:
Cytochrome P450 3A4 = Cytochrome P450 3A4 (Homo sapiens, UniProt P08684); assay: Induction of CYP3A4 in human hepatocytes; type: ADME, cell-based, Hepatocyte
[1] = biological target: T1, Leucine-rich repeat serine/threonine-protein kinase 2 (Homo sapiens, UniProt Q5S007); assay: Inhibition of LRRK2 (unknown origin) phosphorylation by cell-based assay
[2] = biological target: Ribosomal protein S6 kinase alpha-6 (Homo sapiens) (UniProt Q9UK32); assay: Inhibition of RSK4 (unknown origin) at 0.1 uM relative to control
[3] = biological target: Ribosomal protein S6 kinase alpha-2 (Homo sapiens) (UniProt Q15349); assay: Inhibition of RSK3 (unknown origin) at 0.1 uM relative to control
Liver microsome = assay: Drug metabolism in human liver microsomes assessed as glucuronidated parent compound level after 3 hrs; type: ADME
[4] = Ratio of unbound drug level in brain to plasma in Sprague-Dawley rat; type: ADME, organism-based
Cynomolgus monkey = assay: Unbound clearance in cynomolgus monkey at 1 mg/kg, po and 0.5 mg/kg, iv; type: ADME, organism-based, Macaca fascicularis; settings: in vivo
Mus musculus = assay: In vivo inhibition of human LRRK2 G2019S Parkinson's disease mutant expressed in BAC mouse assessed as inhibition of autophosphorylation at Ser1292 in brain at 10 to 50 mg/kg, ip after 1 to 6 hrs; type: functional, organism-based; design: dose 10-50 mg/kg, route intraperitoneal
[5] = Clearance in human hepatocytes at 1 uM by LC-MS/MS analysis; type: ADME, cell-based, Hepatocyte
Cytochrome P450 1A2 [6] = biological target: T2, Cytochrome P450 1A2 (Homo sapiens, UniProt P05177); assay: Induction of CYP1A2 in human hepatocytes; type: ADME, cell-based, Hepatocyte
T2 sequence (P05177 whole entry): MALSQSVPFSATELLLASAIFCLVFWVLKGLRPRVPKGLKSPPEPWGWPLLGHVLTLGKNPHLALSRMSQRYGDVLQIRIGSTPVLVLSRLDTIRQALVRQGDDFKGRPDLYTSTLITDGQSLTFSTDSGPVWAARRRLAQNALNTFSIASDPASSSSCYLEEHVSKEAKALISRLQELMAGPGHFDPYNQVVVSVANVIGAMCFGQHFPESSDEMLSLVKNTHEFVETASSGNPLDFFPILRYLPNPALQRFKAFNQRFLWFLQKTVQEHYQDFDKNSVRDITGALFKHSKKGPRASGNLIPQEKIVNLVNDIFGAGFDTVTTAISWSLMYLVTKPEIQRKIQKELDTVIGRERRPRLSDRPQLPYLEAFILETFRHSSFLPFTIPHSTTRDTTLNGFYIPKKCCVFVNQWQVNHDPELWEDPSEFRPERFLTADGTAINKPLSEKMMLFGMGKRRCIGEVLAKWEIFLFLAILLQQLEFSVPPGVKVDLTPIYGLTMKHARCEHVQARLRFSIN

[7] = Clearance in cynomolgus monkey at 1 mg/kg, po and 0.5 mg/kg, iv; type: ADME, organism-based, Macaca fascicularis; settings: in vivo
[8] = biological target: Aurora kinase B (Homo sapiens) (UniProt Q96GD4); assay: Inhibition of aurora-B (unknown origin) at 0.1 uM relative to control
[9] = Oral bioavailability in Sprague-Dawley rat at 50 mg/kg; type: ADME, organism-based; settings: in vivo
Cytochrome P450 2B6 = biological target: T3, Cytochrome P450 2B6 (Homo sapiens, UniProt P20813); assay: Induction of CYP2B6 in human hepatocytes; type: ADME, cell-based, Hepatocyte
T3 sequence (P20813 whole entry): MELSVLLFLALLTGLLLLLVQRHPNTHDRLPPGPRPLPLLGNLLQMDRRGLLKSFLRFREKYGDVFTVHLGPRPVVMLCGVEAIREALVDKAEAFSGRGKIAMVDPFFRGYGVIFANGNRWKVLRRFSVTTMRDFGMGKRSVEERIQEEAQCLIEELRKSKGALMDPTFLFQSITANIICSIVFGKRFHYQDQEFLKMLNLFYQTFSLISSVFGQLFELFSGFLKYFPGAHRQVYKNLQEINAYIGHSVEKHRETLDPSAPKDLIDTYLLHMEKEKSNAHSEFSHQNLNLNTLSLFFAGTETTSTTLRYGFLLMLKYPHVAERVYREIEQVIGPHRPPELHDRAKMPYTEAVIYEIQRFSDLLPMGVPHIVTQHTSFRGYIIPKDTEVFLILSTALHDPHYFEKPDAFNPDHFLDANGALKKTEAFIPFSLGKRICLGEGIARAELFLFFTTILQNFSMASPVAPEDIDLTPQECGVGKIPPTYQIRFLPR

[10] = Thermodynamic solubility of the crystalline form of compound at pH 7.4; type: physicochemical; settings: read-out: Therm_solubility
[11] = Clearance in rat hepatocytes at 1 uM by LC-MS/MS analysis; type: ADME, cell-based, Hepatocyte
[12] = biological target: Ribosomal protein S6 kinase alpha-3 (Homo sapiens) (UniProt P51812); assay: Inhibition of RSK2 (unknown origin) at 0.1 uM relative to control
[13] = biological target: T4, Dual specificity protein kinase TTK (Homo sapiens, UniProt P33981); assay: Inhibition of TTK (unknown origin)
T4 sequence (P33981 whole entry): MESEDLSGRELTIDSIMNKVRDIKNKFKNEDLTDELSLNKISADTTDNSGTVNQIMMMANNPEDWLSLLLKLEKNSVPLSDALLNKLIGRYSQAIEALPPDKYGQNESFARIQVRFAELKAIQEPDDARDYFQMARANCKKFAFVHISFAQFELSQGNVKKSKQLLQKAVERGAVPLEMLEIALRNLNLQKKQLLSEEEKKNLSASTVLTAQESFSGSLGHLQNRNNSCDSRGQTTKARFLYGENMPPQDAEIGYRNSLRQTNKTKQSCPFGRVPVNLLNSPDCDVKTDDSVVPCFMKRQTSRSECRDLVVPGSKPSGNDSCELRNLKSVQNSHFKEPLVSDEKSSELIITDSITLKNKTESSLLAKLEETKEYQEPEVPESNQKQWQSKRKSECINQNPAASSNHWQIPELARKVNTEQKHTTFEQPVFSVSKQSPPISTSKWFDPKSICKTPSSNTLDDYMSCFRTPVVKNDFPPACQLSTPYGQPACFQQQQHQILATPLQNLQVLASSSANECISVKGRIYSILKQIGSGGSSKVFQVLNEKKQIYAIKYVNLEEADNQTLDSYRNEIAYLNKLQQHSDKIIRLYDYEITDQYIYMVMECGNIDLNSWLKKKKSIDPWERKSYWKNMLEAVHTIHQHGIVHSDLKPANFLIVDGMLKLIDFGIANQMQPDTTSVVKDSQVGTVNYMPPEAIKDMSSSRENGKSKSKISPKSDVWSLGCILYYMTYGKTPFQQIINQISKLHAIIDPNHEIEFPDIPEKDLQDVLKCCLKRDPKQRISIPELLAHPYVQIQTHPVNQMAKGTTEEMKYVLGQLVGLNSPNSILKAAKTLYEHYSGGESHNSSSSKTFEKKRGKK

[14] = Clearance in Sprague-Dawley rat at 1 mg/kg, po and 0.5 mg/kg, iv; type: ADME, organism-based; settings: in vivo
[15] = Half life in cynomolgus monkey at 0.5 mg/kg, iv; type: ADME, organism-based, Macaca fascicularis; design: dose 0.5 mg/kg, route intravenous; settings: in vivo
[16] = Plasma protein binding in cynomolgus monkey at 5 uM after 4 hrs by equilibrium dialysis technique; type: ADME, cell-free, Macaca fascicularis; settings: read-out: PPB (converted)
[17] = biological target: T1, Leucine-rich repeat serine/threonine-protein kinase 2; assay: Inhibition of LRRK2 (unknown origin)
Cytochrome P450 1A2 [18] = biological target: T2, Cytochrome P450 1A2; assay: Reversible inhibition of CYP1A2 in human liver microsomes using phenacetin as substrate by mass spectrophotometric analysis; type: ADME
Rattus norvegicus = assay: Unbound clearance in Sprague-Dawley rat at 1 mg/kg, po and 0.5 mg/kg, iv; type: ADME, organism-based; settings: in vivo
Hepatocyte = assay: Drug metabolism in human hepatocytes assessed as glucuronidated parent compound level after 3 hrs; type: ADME, cell-based
[19] = Oral bioavailability in cynomolgus monkey at 1 mg/kg; type: ADME, organism-based, Macaca fascicularis; settings: in vivo
[20] = Oral bioavailability in cynomolgus monkey at 1 to 20 mg/kg; type: ADME, organism-based, Macaca fascicularis; settings: in vivo
Homo sapiens = species: Homo sapiens; assay: Selectivity ratio of Ki for JAK2 (unknown origin) to Ki for LRRK2 (unknown origin)

T1 sequence (Q5S007 whole entry): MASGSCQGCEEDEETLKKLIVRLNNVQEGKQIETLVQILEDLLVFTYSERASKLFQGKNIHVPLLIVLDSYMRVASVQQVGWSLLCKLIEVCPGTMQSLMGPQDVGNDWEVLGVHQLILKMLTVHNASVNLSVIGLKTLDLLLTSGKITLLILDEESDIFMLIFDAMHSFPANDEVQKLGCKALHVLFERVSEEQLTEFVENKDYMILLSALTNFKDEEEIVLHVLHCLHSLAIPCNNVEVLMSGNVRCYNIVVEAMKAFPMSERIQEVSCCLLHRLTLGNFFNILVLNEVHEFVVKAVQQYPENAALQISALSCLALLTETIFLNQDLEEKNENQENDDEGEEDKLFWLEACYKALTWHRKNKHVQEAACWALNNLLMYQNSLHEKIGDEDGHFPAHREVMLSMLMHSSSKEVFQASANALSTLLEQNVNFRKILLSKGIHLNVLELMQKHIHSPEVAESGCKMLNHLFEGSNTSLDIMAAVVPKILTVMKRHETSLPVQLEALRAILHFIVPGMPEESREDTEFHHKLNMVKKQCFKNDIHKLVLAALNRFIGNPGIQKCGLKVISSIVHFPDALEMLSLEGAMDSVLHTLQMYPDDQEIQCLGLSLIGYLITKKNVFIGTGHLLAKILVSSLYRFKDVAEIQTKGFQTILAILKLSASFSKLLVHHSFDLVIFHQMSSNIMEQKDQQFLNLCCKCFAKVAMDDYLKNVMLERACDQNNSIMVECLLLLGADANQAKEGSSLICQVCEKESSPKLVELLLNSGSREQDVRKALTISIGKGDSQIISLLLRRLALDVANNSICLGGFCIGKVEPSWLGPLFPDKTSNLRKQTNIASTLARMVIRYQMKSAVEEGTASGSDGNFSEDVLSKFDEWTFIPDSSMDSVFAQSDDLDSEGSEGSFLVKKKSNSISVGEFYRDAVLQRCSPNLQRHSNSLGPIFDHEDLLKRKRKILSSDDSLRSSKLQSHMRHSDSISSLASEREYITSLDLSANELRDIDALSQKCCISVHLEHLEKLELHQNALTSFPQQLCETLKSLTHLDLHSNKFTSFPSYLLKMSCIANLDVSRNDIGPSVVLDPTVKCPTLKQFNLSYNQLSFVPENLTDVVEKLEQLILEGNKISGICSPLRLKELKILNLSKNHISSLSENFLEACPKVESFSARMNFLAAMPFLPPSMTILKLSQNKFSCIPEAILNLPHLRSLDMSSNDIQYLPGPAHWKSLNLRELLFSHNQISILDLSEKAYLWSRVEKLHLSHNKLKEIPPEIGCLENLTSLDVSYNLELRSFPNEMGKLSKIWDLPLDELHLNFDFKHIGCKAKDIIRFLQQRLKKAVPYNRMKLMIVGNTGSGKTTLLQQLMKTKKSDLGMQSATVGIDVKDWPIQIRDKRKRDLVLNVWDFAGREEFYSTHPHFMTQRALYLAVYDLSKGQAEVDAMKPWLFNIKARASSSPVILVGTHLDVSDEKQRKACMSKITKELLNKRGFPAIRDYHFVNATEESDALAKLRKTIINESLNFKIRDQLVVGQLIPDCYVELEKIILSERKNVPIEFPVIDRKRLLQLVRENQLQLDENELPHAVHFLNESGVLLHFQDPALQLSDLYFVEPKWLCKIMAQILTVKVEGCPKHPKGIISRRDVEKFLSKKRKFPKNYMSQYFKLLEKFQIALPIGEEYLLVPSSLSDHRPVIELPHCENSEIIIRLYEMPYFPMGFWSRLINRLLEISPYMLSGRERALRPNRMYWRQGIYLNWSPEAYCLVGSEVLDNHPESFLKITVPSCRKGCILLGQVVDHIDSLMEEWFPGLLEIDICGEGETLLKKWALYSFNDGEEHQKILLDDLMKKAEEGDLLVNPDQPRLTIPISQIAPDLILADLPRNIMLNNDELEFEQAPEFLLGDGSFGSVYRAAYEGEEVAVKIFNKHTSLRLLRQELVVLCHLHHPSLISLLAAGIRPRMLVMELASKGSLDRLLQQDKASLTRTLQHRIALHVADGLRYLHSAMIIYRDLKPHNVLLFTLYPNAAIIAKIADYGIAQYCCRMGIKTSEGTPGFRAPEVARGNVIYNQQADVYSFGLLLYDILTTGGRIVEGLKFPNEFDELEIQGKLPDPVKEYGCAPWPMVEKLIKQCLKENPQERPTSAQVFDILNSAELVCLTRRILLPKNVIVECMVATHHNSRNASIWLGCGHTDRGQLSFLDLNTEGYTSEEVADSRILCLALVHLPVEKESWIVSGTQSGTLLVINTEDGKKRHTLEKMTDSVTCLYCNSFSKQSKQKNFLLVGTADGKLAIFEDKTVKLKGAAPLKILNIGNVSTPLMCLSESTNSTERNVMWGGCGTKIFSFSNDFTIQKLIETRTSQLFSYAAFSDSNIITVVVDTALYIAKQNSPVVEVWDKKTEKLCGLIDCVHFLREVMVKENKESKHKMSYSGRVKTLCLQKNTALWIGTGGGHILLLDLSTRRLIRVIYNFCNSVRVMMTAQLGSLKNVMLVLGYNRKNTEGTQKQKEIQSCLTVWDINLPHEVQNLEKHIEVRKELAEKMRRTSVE
Sequence of Ribosomal protein S6 kinase alpha-2 (Homo sapiens) (Q15349 whole entry): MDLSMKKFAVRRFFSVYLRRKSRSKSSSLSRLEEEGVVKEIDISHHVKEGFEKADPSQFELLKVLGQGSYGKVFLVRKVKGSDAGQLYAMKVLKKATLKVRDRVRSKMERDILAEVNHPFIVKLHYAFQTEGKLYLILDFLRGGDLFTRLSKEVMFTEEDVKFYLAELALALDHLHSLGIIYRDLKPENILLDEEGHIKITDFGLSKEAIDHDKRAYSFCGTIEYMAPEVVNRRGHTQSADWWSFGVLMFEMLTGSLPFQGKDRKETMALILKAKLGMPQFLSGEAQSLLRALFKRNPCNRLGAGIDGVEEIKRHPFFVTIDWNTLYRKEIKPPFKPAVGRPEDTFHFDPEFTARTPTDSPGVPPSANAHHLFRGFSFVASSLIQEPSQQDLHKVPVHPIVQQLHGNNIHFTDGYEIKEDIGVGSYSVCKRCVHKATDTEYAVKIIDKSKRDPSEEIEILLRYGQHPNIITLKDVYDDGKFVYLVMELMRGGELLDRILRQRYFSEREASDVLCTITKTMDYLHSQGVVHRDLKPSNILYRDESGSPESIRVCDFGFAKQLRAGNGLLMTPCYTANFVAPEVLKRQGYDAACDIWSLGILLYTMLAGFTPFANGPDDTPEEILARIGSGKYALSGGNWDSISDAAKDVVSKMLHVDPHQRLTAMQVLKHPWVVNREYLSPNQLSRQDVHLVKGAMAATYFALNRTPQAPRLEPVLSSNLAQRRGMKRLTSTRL
Sequence of Ribosomal protein S6 kinase alpha-3 (Homo sapiens) (P51812 whole entry): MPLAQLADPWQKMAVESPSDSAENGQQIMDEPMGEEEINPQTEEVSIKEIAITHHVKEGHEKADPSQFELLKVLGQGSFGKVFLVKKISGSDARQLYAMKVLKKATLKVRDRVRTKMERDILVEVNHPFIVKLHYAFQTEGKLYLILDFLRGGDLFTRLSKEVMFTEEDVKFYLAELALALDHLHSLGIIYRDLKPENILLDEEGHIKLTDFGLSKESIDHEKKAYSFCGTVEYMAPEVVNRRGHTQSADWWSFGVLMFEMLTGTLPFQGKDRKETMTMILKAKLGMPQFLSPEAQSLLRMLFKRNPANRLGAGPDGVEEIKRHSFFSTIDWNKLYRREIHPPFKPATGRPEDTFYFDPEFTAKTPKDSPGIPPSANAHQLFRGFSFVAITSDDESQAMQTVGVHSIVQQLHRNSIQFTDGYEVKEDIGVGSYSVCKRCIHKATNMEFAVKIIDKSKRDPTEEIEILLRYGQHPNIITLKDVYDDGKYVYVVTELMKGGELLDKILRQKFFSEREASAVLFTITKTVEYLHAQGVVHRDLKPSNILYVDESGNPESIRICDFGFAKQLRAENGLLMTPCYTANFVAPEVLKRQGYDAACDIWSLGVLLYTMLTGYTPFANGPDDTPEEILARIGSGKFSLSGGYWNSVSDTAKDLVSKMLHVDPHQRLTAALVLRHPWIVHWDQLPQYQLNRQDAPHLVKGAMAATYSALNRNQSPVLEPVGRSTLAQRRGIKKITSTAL
Sequence of Aurora kinase B (Homo sapiens) (Q96GD4 whole entry): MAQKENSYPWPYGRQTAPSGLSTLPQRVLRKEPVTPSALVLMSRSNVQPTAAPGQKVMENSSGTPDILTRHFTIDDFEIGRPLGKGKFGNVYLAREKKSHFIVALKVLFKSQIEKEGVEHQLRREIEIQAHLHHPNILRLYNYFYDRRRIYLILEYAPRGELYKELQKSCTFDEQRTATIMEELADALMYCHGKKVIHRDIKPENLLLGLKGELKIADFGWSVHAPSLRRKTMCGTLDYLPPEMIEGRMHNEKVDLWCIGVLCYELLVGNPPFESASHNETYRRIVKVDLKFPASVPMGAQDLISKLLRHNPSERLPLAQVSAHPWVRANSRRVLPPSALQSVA
Sequence of Ribosomal protein S6 kinase alpha-6 (Homo sapiens) (Q9UK32 whole entry): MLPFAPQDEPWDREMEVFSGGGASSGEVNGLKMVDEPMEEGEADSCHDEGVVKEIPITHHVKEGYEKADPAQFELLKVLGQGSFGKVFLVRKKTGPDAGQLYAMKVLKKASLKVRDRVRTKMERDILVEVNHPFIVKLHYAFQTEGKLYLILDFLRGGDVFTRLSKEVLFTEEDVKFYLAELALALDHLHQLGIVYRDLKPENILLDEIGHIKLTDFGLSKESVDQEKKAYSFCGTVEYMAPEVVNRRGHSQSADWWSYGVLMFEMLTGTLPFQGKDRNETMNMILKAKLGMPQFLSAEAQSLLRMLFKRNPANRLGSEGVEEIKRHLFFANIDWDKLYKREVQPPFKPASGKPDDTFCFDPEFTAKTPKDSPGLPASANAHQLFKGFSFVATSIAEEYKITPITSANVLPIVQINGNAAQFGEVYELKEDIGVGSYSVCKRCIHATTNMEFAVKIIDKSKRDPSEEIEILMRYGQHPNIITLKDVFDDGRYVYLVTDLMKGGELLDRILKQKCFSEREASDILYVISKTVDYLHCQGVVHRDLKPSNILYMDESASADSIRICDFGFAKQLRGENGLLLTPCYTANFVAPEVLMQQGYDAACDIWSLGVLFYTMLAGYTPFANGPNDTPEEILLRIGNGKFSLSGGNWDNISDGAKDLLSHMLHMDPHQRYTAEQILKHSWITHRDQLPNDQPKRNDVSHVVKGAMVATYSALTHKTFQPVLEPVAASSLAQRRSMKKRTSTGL

Compound: CNc1nc(Nc2cn(C(C)(C)C#N)nc2C)ncc1C(F)(F)F [DNL-201]
- Activity (Cytochrome P450 3A4): Active
- IC50 [1]: 3 nM
- inhibition [2]: 62%
- inhibition [3]: 68%
- Drug metabolism (Liver microsome): Not Active
- Kp uu [4]: 0.6
- CL free (Cynomolgus monkey): 100 mL/min/kg
- IC50 (Mus musculus): 3 nM
- inhibition (Mus musculus): Dose-dependent effect
- CLhep predicted at 1 µM [5]: 3 mL/min/kg
- Activity (Cytochrome P450 1A2 [6]): Active
- clearance [7]: 19.7 mL/min/kg
- inhibition [8]: 51%
- bioavailability [9]: 88%
- Activity (Cytochrome P450 2B6): Active
- solubility thermodynamic [10]: 100 µg/mL (≈ 295 µM)
- CLhep predicted at 1 µM [11]: 25 mL/min/kg
- inhibition [12]: 52%
- Ki [13]: 150 nM
- clearance [14]: 44 mL/min/kg
- half-life [15]: 2.2 h
- fraction unbound at 4 h, 5 µM [16]: 0.197
- Ki [17]: 0.7 nM
- IC50 (Cytochrome P450 1A2 [18]): 700 nM
- CL free (Rattus norvegicus): 210 mL/min/kg
- Drug metabolism (Hepatocyte): Not Active
- bioavailability [19]: 35%

Compound: CNc1nc(Nc2cnn(CC(C)(C)O)c2Cl)ncc1C(F)(F)F
- bioavailability [20]: 5%
- Ratio Ki (Homo sapiens): > 150
